The text below walks through data of US5451573A, “Substituted cyclohexane derivatives for the treatment of diseases” (Hoechst Aktiengesellschaft, priority 1992, dated 1995).

For one test, the system named is glucose-6-phosphatase.
Test: not given
The following applies: described in the literature; cited from earlier work.
On to `S=C=Nc1ccccc1C=Cc1ccccc1N=C=S` [2,2'-diisothiocyanatostilbene], for which the “non-specific inhibitor of glucose-6-phosphatase (in words)” value (“non-specific inhibitor” for short) is “non-specific inhibitors of glucose-6-phosphatase”.

As for `CC(=O)Oc1ccccc1C=Cc1ccccc1N=C=S` [2-isothiocyanato-2'-acetoxystilbene], the “non-specific inhibitor” value is reported as “non-specific inhibitors of glucose-6-phosphatase”.

In the case of `O=C(CCc1ccc(O)cc1)c1c(O)cc(O)cc1O[C@@H]1O[C@H](CO)[C@@H](O)[C@H](O)[C@H]1O` [phlorhizin], the “non-specific inhibitor” value is recorded as “non-specific inhibitors of glucose-6-phosphatase”. As to `O=C(O)c1cc(SSc2ccc([N+](=O)[O-])c(C(=O)O)c2)ccc1[N+](=O)[O-]` [5,5'-dithiobis-2-nitrobenzoic acid], the “non-specific inhibitor” value is recorded as “non-specific inhibitors of glucose-6-phosphatase”.

For the next test, the target named is T1, glucose-6-phosphatase system (Rattus norvegicus, UniProt F7EWB7).
T1 construct: from tissue; host or cells: liver microsomes of male Wistar rats
T1 sequence (F7EWB7 1-429): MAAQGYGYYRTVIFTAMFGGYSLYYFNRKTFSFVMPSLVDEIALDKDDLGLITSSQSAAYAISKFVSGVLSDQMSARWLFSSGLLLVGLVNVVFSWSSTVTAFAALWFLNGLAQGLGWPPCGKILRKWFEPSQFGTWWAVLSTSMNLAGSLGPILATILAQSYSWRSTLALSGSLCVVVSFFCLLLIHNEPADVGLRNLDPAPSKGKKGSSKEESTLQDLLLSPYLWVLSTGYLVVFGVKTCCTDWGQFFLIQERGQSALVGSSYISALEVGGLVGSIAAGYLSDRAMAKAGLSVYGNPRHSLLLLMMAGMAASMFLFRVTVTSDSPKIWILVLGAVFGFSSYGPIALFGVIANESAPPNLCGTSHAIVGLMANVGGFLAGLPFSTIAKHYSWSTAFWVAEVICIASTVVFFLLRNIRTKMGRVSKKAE
Nature of the test: glucose-6-phosphatase enzyme test in liver microsomes (phosphate released from glucose-6-phosphate). Format: biochemical, male Wistar rats.
Conditions: not given
The procedure:
The action of the compounds according to the invention on the glucose-6-phosphatase system was investigated in an enzyme test in liver microsomes.
Fresh liver organs of male Wistar rats were used for the preparation of the microsome fraction containing the glucose-6-phosphatase and processed as described in the literature [Canfield, W. K. and Arion, W. J., J. Biol. Chem. 263, 7458-7460, (1988)]. This microsome fraction can be stored at -70° C. for at least 2 months without significant loss of activity.
The detection of the glucose-6-phosphatase activity was carried out as indicated in the literature (Arion, W. J. in Methods Enzymol. 174, Academic Press 1989, pages 58-67) by determination of the phosphate released from glucose-6-phosphate. 0.1 ml of test mixture contained glucose-6-phosphate (1 mmol/l), the test substance, 0.1 mg of microsome fraction and 100 mmol/l of HEPES buffer (4-(2-hydroxyethyl)piperazine-1-ethanesulfonic acid), pH 7.0. The reaction was started by addition of the enzyme. After 20 min had passed at room temperature, the reaction was stopped by addition of 0.2 ml of phosphate reagent. The sample was incubated at 37° C. for 30 min, and the absorption (A) of the blue color was then measured at 570 nm. The inhibitory activity of the test substance resulted by comparison with a control reaction, which contained no test substance, according to the formula [formula]
On the technique in general: Liver microsomes are a subcellular fraction often used to study metabolism.
With `O=C(/C=C/c1ccc(O)c(O)c1)O[C@@H]1C[C@](O)(C(=O)O)C[C@@H](O)[C@H]1O` [Compound 17, chlorogenic acid], the “inhibitor of the glucose-6-phosphatase system (in words)” value is listed as “inhibitors of the glucose-6-phosphatase system”.

Staying with this test, now noted: Concentration 1 × 10^-3 M; rat liver microsome fraction, glucose-6-phosphate 1 mmol/l, pH 7.0; read-out: Inhibition [%].
Usually inhibition stands for the share of the control response that was lost under treatment. For the molecule `O=C(O)C[C@]1(O)C[C@@H](O)[C@@H](O)[C@H](OC(=O)/C=C/c2ccc(O)cc2)C1` [Compound 23], the inhibition at 1000 µM amounted to 30%. Regarding `O=C(/C=C/c1cccnc1)O[C@@H]1C[C@](O)(C(=O)O)C[C@@H](O)[C@H]1O` [Compound 11], the inhibition at 1000 µM came out at 20%. On the same count and under the same terms, the value for `COc1sccc1/C=C/C(=O)O[C@@H]1C[C@](O)(C(=O)O)C[C@@H](O)[C@H]1O` [Compound 14] was 20%; that for `O=C(O)CC[C@]1(O)C[C@@H](O)[C@@H](O)[C@H](OC(=O)/C=C/c2ccc(O)cc2)C1` [Compound 24] was 45%.

For `O=C(/C=C/c1ccc([N+](=O)[O-])cc1)O[C@@H]1C[C@](O)(C(=O)O)C[C@@H](O)[C@H]1O` [Compound 16], the inhibition at 1000 µM was determined as 35%. Take `O=C(/C=C/c1ccc(O)cc1)O[C@@H]1CC(CP(=O)(O)O)=C[C@@H](O)[C@H]1O` [Compound 28]: the inhibition at 1000 µM was 28%.

For the molecule `O=C(/C=C/c1ccc(O)c(F)c1)O[C@@H]1C[C@](O)(C(=O)O)C[C@@H](O)[C@H]1O` [Compound 10], the inhibition at 1000 µM was determined as 50%. On the same count and under the same terms, the value for `O=C(/C=C/c1ccc(O)cc1)N[C@@H]1CC(C(=O)O)=C[C@@H](O)[C@H]1O` [Compound 26] was 15%.

Regarding `O=C(/C=C/c1ccc(O)cc1)O[C@@H]1C[C@H](C(=O)O)CC[C@H]1O` [Compound 22], the inhibition at 1000 µM was 20%. On the same count and under the same terms, the value for `O=C(/C=C/c1ccc(O)cc1)O[C@@H]1C[C@](O)(C(=O)O)[C@@H](O)[C@@H](O)[C@H]1O` [Compound 20] was 30%.

`O=C(/C=C/c1ccc(O)cc1)O[C@@H]1C[C@@](O)(C(=O)O)[C@H](O)[C@@H](O)[C@H]1O` [Compound 20α]: the inhibition at 1000 µM amounted to 10%.

Staying with this test, now noted: pH 7.
Turning to `COP(=O)(CC1=C[C@@H](O)[C@@H](O)[C@H](OC(=O)/C=C/c2ccc(O)cc2)C1)OC` [Compound 27], the inhibition at 1000 µM was found to be 15%.

The test is the same for the next values; noted with them: rat liver microsome fraction, glucose-6-phosphate 1 mmol/l, pH 7.0, 20 min room temperature; concentration at which 50 % inhibition is printed; read-out: Concentration [M] giving Inhibition 50 [%].
On to `COc1ccc(/C=C/C(=O)O[C@@H]2C[C@](O)(C(=O)O)C[C@@H](O)[C@H]2O)cc1O` [Compound 6], for which the IC50 came out at 0.00046 M. With `O=C(O[C@@H]1C[C@](O)(C(=O)O)C[C@@H](O)[C@H]1O)c1ccc(O)cc1` [Compound 19], the IC50 is 0.00092 M. On to `O=C(/C=C/c1ccc(O)cc1O)O[C@@H]1C[C@](O)(C(=O)O)C[C@@H](O)[C@H]1O` [Compound 4], for which the IC50 came to 0.00068 M.

Regarding `O=C(/C=C/c1ccccc1O)O[C@@H]1C[C@](O)(C(=O)O)C[C@@H](O)[C@H]1O` [Compound 9], the IC50 is 0.00048 M.

Take `O=C(/C=C/c1cccc(O)c1)O[C@@H]1C[C@](O)(C(=O)O)C[C@@H](O)[C@H]1O` [Compound 7]: the IC50 turned out to be 0.00053 M. Still for that read-out and setting: the value for `O=C(/C=C/c1ccc(O)cc1)O[C@@H]1CC(C(=O)O)=C[C@@H](O)[C@H]1O` [Compound 25] was 0.00025 M; that for `O=C(/C=C/c1ccc(O)c(O)c1)O[C@@H]1C[C@](O)(C(=O)O)C[C@@H](O)[C@H]1O` [Compound 17, chlorogenic acid] was 0.00023 M. `O=C(/C=C/c1ccc(O)c(O)c1O)O[C@@H]1C[C@](O)(C(=O)O)C[C@@H](O)[C@H]1O` [Compound 1]: the IC50 was found to be 0.00031 M. The same measure, in the same setting: under `O=C(/C=C/c1cccc(O)c1O)O[C@@H]1C[C@](O)(C(=O)O)C[C@@H](O)[C@H]1O` [Compound 2] stands 0.00031 M; under `O=C(O[C@@H]1C[C@](O)(C(=O)O)C[C@@H](O)[C@H]1O)c1ccc(OCc2ccccc2)cc1` [Compound 18], 0.00068 M; under `COc1cc(/C=C/C(=O)O[C@@H]2C[C@](O)(C(=O)O)C[C@@H](O)[C@H]2O)ccc1O` [Compound 5], 0.00041 M.

For the molecule `O=C(/C=C/c1cccs1)O[C@@H]1C[C@](O)(C(=O)O)C[C@@H](O)[C@H]1O` [Compound 12], the IC50 was determined as 0.00038 M.

For the molecule `O=C(/C=C/c1ccc(O)cc1)O[C@@H]1C[C@H](C(=O)O)C[C@@H](O)[C@H]1O` [Compound 21], the IC50 was 0.00023 M. For `O=C(/C=C/c1c(O)ccc2ccccc12)O[C@@H]1C[C@](O)(C(=O)O)C[C@@H](O)[C@H]1O` [Compound 15], the IC50 turned out to be 0.00046 M. With `O=C(/C=C/c1ccsc1)O[C@@H]1C[C@](O)(C(=O)O)C[C@@H](O)[C@H]1O` [Compound 13], the IC50 was determined as 0.00078 M. Regarding `O=C(/C=C/c1cc(O)ccc1O)O[C@@H]1C[C@](O)(C(=O)O)C[C@@H](O)[C@H]1O` [Compound 3], the IC50 worked out at 0.00068 M. For `O=C(/C=C/c1ccc(O)c(F)c1)O[C@@H]1C[C@](O)(C(=O)O)C[C@@H](O)[C@H]1O` [Compound 10], the IC50 came out at 0.001 M. With `O=C(/C=C/c1ccc(O)cc1)O[C@@H]1C[C@](O)(C(=O)O)C[C@@H](O)[C@H]1O` [Compound 8], the IC50 amounted to 0.00026 M. Same read-out and setting: under `COc1ccc(/C=C/C(=O)O[C@@H]2C[C@](O)(C(=O)O)C[C@@H](O)[C@H]2O)cc1OC` [Compound 17α] stands 0.00068 M.

The test system of the next test is lipoxygenase.
Test: not given
As to conditions: M. Nishizawa et al., Chem. Pharm. Bull. 34(3), 1419 (1986); cited from earlier work.
As for `O=C(/C=C/c1ccc(O)c(O)c1)O[C@@H]1C[C@](O)(C(=O)O)C[C@@H](O)[C@H]1O` [Compound 17, chlorogenic acid], the “inhibitor of lipoxygenase (in words)” value is reported as “inhibitor of lipoxygenase”.
